Data from ChEMBL document CHEMBL1201862, “PubChem BioAssay data set” (2004).
Activity calls are given as the source filed them.

Experiments:
[1] = Mtb BioA inhibitors by displacement, dose response, biochemical, coupled fluorescence displacement, 20-point, dry powder (AID 743357); type: functional
[2] = target: RNA-editing ligase 1, mitochondrial (Trypanosoma brucei brucei, UniProt P86926); test: TbREL1 ligase inhibitors, dose response, biochemical, fluorescence, Trypanosoma brucei (AID 1117295); type: functional
RNA-editing ligase 1, mitochondrial, sequence (P86926 whole entry): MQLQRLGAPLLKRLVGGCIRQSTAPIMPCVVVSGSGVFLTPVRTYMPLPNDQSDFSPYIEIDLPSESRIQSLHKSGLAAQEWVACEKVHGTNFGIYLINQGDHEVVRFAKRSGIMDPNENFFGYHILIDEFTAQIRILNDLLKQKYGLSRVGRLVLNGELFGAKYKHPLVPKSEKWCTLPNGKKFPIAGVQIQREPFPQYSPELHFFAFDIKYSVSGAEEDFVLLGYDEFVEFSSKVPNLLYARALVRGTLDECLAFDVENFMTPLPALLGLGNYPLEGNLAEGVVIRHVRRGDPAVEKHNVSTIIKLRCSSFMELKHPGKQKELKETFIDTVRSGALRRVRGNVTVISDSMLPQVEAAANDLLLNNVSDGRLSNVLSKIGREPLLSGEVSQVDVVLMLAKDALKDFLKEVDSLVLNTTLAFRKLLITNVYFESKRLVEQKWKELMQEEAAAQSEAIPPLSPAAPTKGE

[3] = cytotoxicity in OV-90 ovarian cancer cells, dose response, PAX8 inhibitor project, cell-based, plate reader, dry powder, SA8 (AID 743149); type: functional
[4] = cytotoxicity in HEK-293T cells, dose response, cytotoxicity control for TCR NF-kB inhibitor project, luminescence, T-cell screen hits (AID 489026); type: functional, cell-based;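 note: cells exposed to compound about 14 hours before the viability readout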
[5] = A2780 ovarian cancer cell cytotoxicity, dose response, cytotoxicity control, plate reader, dry powder samples (AID 743046); type: functional, cell-based
[6] = inhibitors of SNCA 5'UTR-driven translation, confirmation, luminescence, H4 neuroglioblastoma cells, dose confirmation (AID 2454); type: functional, cell-based;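 note: H4 neuroglioblastoma cells carrying an alpha-synuclein 5'UTR luciferase reporter; potency for inhibition of the luciferase signal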
[7] = target: T1, Nuclear receptor subfamily 0 group B member 1 (Homo sapiens, UniProt P51843); type: functional, cell-based;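 note: HEK293T cells transfected with SF-1 and DAX-1 plus StAR promoter luciferase reporter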
T1 sequence (P51843 whole entry): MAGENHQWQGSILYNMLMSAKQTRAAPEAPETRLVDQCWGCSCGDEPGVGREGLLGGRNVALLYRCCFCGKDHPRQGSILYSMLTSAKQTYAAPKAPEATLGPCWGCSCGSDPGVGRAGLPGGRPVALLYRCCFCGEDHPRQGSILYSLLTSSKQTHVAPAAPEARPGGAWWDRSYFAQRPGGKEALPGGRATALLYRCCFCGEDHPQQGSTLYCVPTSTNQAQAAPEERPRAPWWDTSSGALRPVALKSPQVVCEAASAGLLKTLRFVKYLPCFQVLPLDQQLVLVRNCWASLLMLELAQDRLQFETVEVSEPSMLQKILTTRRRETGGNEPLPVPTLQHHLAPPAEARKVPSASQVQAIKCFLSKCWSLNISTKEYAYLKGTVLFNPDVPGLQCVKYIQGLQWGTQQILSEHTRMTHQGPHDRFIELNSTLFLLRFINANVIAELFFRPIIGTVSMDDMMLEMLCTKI

[8] = cytotoxicity dependent on PAX8, dose response, cell-based, plate reader, dry powder (AID 743049); type: functional
[9] = inhibitors of SNCA 5'UTR-driven reporter translation, confirmation, H4 neuroglioma cells, luminescence (AID 1988); type: functional, cell-based
[10] = cytotoxicity in COV434 cells, dose response, cytotoxicity control for PAX8 inhibitor project, cell-based, plate reader, dry powder, SA7 (AID 743145); type: functional
[11] = cells; type: functional, cell-based
[12] = PAX2 cell-based inhibition, dose response, selectivity assay for PAX8 inhibitor project, plate reader, dry powder samples (AID 743048); type: functional;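 note: HEK293 cells carrying a WT1 promoter luciferase reporter driven by expressed Pax2; potency is for inhibition of Pax2 driven reporter signal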
[13] = IGROV1 ovarian cancer cell cytotoxicity, dose response, PAX8 inhibitor project, plate reader, dry powder samples (AID 743043); type: functional, cell-based; settings: IGROV-1
[14] = luciferase reporter signal reduction – luminescence, H4-C neuroglioblastoma cells, dose response (AID 2458); type: functional, cell-based;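 note: H4 neuroglioblastoma cells stably carrying a luciferase reporter gene fusion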
[15] = IOSE-T80 ovarian epithelial cell cytotoxicity, dose response, cytotoxicity control for PAX8 inhibitor project, plate reader, dry powder samples (AID 743045); type: functional, cell-based
[16] = PAX5 activity inhibitors, dose response, selectivity assay for PAX8 inhibitor project, cell-based, plate reader, dry powder samples (AID 743047); type: functional;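 note: HEK293 cells carrying a Pax5 driven CD19 promoter luciferase reporter; potency of inhibitors that lower reporter luminescence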
[17] = cytotoxicity in COV362 ovarian cancer cells, dose response, cytotoxicity control for PAX8 inhibitor project, cell-based, plate reader, dry powder, SA12 (AID 743144); type: functional
[18] = inhibitors of firefly luciferase expression or activity, dose response, H4 neuroglioma cells, luminescence (AID 1990); type: functional, cell-based
[19] = cytotoxicity in OVCAR4 cells, dose response, cytotoxicity control for PAX8 inhibitor project, cell-based, plate reader, dry powder, SA11 (AID 743150); type: functional; settings: OVCAR-4
[20] = NIH:OVCAR-3 ovarian cancer cell cytotoxicity, dose response, PAX8 inhibitor project, plate reader, dry powder samples (AID 743044); type: functional, cell-based
[21] = target: Paired box protein Pax-8 (Homo sapiens, UniProt Q06710); test: inhibitors of PAX8-driven TPO luciferase reporter, dose response, RMG-I cells, cherry-pick (AID 687027); type: functional, cell-based;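 note: luciferase reporter driven by Pax8 target thyroperoxidase promoter measured by SteadyGlo luminescence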
Paired box protein Pax-8, sequence (Q06710 whole entry): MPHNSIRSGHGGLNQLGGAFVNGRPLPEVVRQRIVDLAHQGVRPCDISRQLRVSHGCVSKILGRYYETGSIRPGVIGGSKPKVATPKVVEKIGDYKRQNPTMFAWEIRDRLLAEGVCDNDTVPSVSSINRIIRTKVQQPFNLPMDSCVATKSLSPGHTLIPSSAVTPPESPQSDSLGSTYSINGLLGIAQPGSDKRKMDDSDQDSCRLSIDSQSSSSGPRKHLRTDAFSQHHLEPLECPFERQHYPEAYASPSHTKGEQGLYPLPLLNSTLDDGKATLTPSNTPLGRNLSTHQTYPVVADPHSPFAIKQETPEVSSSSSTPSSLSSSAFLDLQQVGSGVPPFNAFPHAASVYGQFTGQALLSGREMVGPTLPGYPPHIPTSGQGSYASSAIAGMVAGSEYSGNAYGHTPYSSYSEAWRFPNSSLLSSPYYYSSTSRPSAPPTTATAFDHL

[22] = cells; type: functional, cell-based; remark: listed apart in the source
[23] = HeLa 2N DNA content increase, dose response, cell-based, IC50 (AID 1117349); type: functional
[24] = HeLa 4N DNA content increase, dose response, cell-based, IC50 (AID 1117351); type: functional

## O=C(c1ccc2c(c1)OCO2)N1CCN(c2ccc(S(=O)(=O)C(F)F)cc2)CC1
[1]
  AC50: 16700 nM (active)

## C=CCNC1=NC(c2ccccc2C(F)(F)F)C(C(=O)OC)=C(C)N1Cc1cccc(C(F)(F)F)c1 (centres undefined)
[2]
  IC50: > 96600 nM (inactive)

## CN[C@H]1CCc2cc(OC)c(OC)c(OC)c2-c2ccc(OC)c(=O)cc21 [DEMECOLCINE]
[3]
  AC50: 48.8 nM (active)
[4]
  IC50: > 80000 nM (inactive)
[5]
  AC50: 234 nM (active)
[6]
  EC50: 85 nM (active)
[7]
  IC50: > 834 nM (active)
[8]
  AC50: 96.7 nM (active)
[9]
  EC50: < 100 nM (active)
[10]
  AC50: 61.5 nM (active)
[11]
  IC50: > 67600 nM (inactive)
[12]
  AC50: 217 nM (active)
[13]
  AC50: 6350 nM (active)
[14]
  EC50: 78 nM (active)
[15]
  AC50: 113 nM (active)
[16]
  AC50: > 100000 nM (inactive)
[17]
  AC50: 96.6 nM (active)
[18]
  EC50: < 100 nM (active)
[19]
  AC50: 113 nM (active)
[20]
  AC50: 318 nM (active)
[21]
  AC50: < 260 nM (active)
[22]
  EC50: 80 nM (active)

## CC(=O)Oc1ccccc1C(=O)Nc1ncc([N+](=O)[O-])s1 [NITAZOXANIDE]
[23]
  IC50: > 10000 nM (inactive)
[24]
  IC50: > 10000 nM (inactive)
